{"source": "patent US7718677B2", "about": "“Methods and compositions for reduction of side effects of therapeutic treatments” (priority 2007, dated 2010)", "key": {"[1]": {"test_system": "MPTP-lesioned squirrel monkeys", "assay": "Parkinsonism rating on or off levodopa in MPTP-lesioned monkeys", "assay_type": "in vivo, Saimiri sciureus", "design": "key to Parkinson Ratings Expt 1 / Parkinson Ratings Expt 2 (crossover): disability score 0 = normal to 28 = severely parkinsonian", "procedure": "(§1) 1-Methyl-4-phenyl-1,2,3,6-tetrahydropyridine (MPTP) administration: Prior to lesioning, the animals were allowed to acclimate to the colony and rated for parkinsonism as described (Langston et al. Ann Neurol. 2000; 47:S79-89). All values were within the normal range. The monkeys were then injected subcutaneously with 2.0 mg/kg MPTP (Sigma, St-Louis, Mo.) dissolved in saline. The animals were rated for parkinsonism 3-4 weeks after MPTP administration. The disability scores ranged from 0 (normal) to 28 for a severely parkinsonian animal. Animals were assessed for 1) spatial hypokinesia (reduction in use of the available cage space), 2) body bradykinesia (increased slowness in body movement), 3) left and 4) right manual dexterity, 5) balance, 6) freezing and 7) action tremor. If they were not parkinsonian, MPTP injection (1.0-2.0 mg/kg) was repeated from 2-5 times for total doses of 3.5 to 13.5 mg/kg. Despite multiple MPTP dosing, two of the animals were not stably parkinsonian.\nData analyses: The levodopa treatment protocol used in the present study involved a 5-day-on/2-day-off schedule. Parkinsonian ratings were done on Monday and Friday of each week, with the score averaged over the two days. Dyskinesias ratings were determined by averaging the scores on Wednesday and Thursday of each week. All values are expressed as the mean±SE of the indicated number of animals. Results were compared using paired t-tests or analysis of variance (ANOVA) followed by Bonferroni multiple comparison post hoc test, using Prism® program (GraphPad Software, Inc, San Diego, Calif.). A level of 0.05 was considered significant.\nWhite bars indicate no nicotine treatment and black bars indicate nicotine treatment. Parkinsonism was evaluated immediately before the afternoon L-dopa dose and 1.5 to 2 hours after L-dopa treatment, when a maximal antiparkinsonian effect is anticipated. Two of the seven animals in the study were not parkinsonian, and therefore were not included in this analysis. Error bars are the means±standard error of five animals before and after crossover of nicotine treatment. **p<0.01, as compared with the same group with no L-dopa treatment by a Mann-Withney test."}, "[2]": {"conditions": "general description; cited from earlier work"}, "[3]": {"test_system": "Squirrel (Saimiri sciureus) monkeys with nigrostriatal damage", "assay": "Levodopa-induced dyskinesias in MPTP-lesioned monkeys, nicotine in drinking solution before levodopa (Example 1)", "assay_type": "in vivo", "conditions": "scale 0-4, mean ± SE", "procedure": "Animals: Squirrel (Saimiri sciureus) monkeys (n=7) were purchased from World Wide Primates (Miami, Fla.). The animals weighed between 0.6-0.9 kg and were in mid to late adulthood as determined from their general appearance (dentition, fur, other). Female monkeys were used since older animals were available that may better model Parkinson's disease. The animals were placed in quarantine upon arrival, and maintained in a temperature-controlled room (27±3° C.) with a relative humidity>30%, under a 13/11-hour light/dark cycle. Monkey food chow and fruits/vegetables were provided once daily, with water provided ad libitum. The monkeys were housed in separate cages to allow for clear behavioral assessments. The animals were released from quarantine after 1 month and treatments initiated. All procedures conformed to the National Institutes of Health Guide for the Care and Use of Laboratory Animals and were approved by the Institutional Animal Care and Use Committee at the Parkinson's Institute.\nas §1\nNicotine treatment: All monkeys (n=7) were then given a drinking solution for 3 weeks consisting of commercially available orange Gatorade® to mask nicotine's bitter taste (FIG. 1). The control group (n=4) was continued on Gatorade® only, while nicotine (free base) was added to the Gatorade of the treated group (n=3). Nicotine dosing was started at 50 μg/ml for 1 week, 150 μg/ml for 1 week, with the concentration increased by […] over the next few weeks, up to 650 μg/ml (FIG. 1).\nLevodopa administration: Monkeys were administered levodopa/carbidopa (5 mg/kg and 1.25 mg/kg, respectively), prepared by crushing a tablet of Sinemet® CR 100/25 (DuPont Pharma) and dissolving it in water. This dose of levodopa is within the range of that prescribed to Parkinson's disease patients. The monkeys were gavaged twice daily at 3.5-hour intervals for 8 weeks at a time using a 5-day-on/2-day-off schedule (Hsu et al., J Pharmacol Exp Ther. 2004; 311:770-777). During levodopa treatment, the monkeys were given fruits in the morning and food pellets 3.5 hours after the afternoon levodopa dose to optimize gastrointestinal absorption.\nDyskinesias were rated from videotapes, as described (Hsu et al., J Pharmacol Exp Ther. 2004; 311:770-777). This included a one hour baseline period (no drugs) from ˜8:00-9:00 AM, followed by two 3.5-hour treatment periods with levodopa starting at ˜9:00 AM and ˜12:30 PM. Dyskinesias were rated for 2-minute periods at 30-minute intervals by two independent raters blinded to treatment. They were rated on a scale of 0 (no dyskinesias) to 4; a score of 1 was indicative of subtle dyskinesias that were not sustained; 2, mild dyskinesias that were sustained; 3, moderate dyskinesias that impaired the ability to remain stationary; 4, severe dyskinesias that were generalized and incapacitating.\nData analyses: The levodopa treatment protocol used in the present study involved a 5-day-on/2-day-off schedule."}, "[4]": {"conditions": "on levodopa treatment, 1.5-2 hours after dosing, individual animals, scale 0-28"}}, "note": "Several values for one entry are separate records, joined by “and”; a condition that tells them apart may be missing. Identical values can stand only once.", "data": [{"smiles": "N[C@@H](Cc1ccc(O)c(O)c1)C(=O)O", "note": "[levodopa, (−)-L-a-amino-b-(3,4-dihydroxybenzene) propanoic acid]", "values": [{"measurement": "parkinsonism ratings", "setting": "[1]; measured 1.5-2 hours after levodopa dosing", "result": "reduced"}, {"measurement": "Parkinson Ratings Expt 1", "setting": "[1]; [4]", "result": "0.4 (2×) and 0.6"}, {"measurement": "Parkinson Ratings Expt 2 (crossover)", "setting": "[1]; [4]", "result": "1.8 and 0.9"}, {"measurement": "Parkinson Ratings Mean ± SE (n)", "setting": "[1]; on levodopa treatment, 1.5-2 hours after dosing, n=5", "result": "0.8 ± 0.3 (5)"}, {"measurement": "solubility in water", "setting": "[2]", "result": "slightly soluble"}, {"measurement": "dyskinetic ratings 3 hours after the afternoon levodopa treatment", "setting": "[3]; week 2/3 of levodopa treatment, levodopa/carbidopa 5/1.25 mg/kg twice daily", "result": "0.5 ± 0.3"}, {"measurement": "dyskinetic ratings 3 hours after the afternoon levodopa treatment", "setting": "[3]; week 4 of levodopa treatment", "result": "1.0 ± 0.4"}, {"measurement": "dyskinetic ratings 3 hours after the afternoon levodopa treatment", "setting": "[3]; week 6 of levodopa treatment", "result": "1.1 ± 0.2"}, {"measurement": "dyskinetic ratings 3 hours after the afternoon levodopa treatment", "setting": "[3]; week 8 of levodopa treatment", "result": "0.9 ± 0.1"}]}]}
